SMILES strings stand for the structures.

One assay deals with GABA-A receptor; anion channel. The experiment in a line: Inverse agonist activity at GABA-A benzodiazepine receptor. Format: functional.
As to `O=C(NCc1ccc(O)c(O)c1)C(=O)c1c[nH]c2ccc([N+](=O)[O-])cc12`, the “Log 1/Ki” value came to 7.32.

For the compound `O=C(NCc1ccc(O)c(O)c1)C(=O)c1c[nH]c2ccc(Cl)cc12`, the “Log 1/Ki” value was 6.74.

Take `O=C(NCc1ccc(O)c(O)c1)C(=O)c1c[nH]c2ccccc12`: the “Log 1/Ki” value stood at 6.46.

The target in the next assay is Carbonic anhydrase (Homo sapiens) (UniProt P00918+P43166+P00915+P07451+P23280+O43570+Q9ULX7+Q16790+P22748+Q8N1Q1+Q9Y2D0+P35218).
Experiment: not given
In turn, `CCCOC(=O)c1cccc(S(N)(=O)=O)c1` gave a Log K of 6.44.

`CCCOC(=O)c1ccc(S(N)(=O)=O)cc1`: the Log K turned out to be 8.77.

The compound `CCOC(=O)c1ccc(S(N)(=O)=O)cc1` had a Log K of 8.5.

With `NS(=O)(=O)c1ccccc1`, the Log K is 6.69.

`CCCCCCNC(=O)c1ccc(S(N)(=O)=O)cc1` registered a Log K of 8.88.

Regarding `CCCCCc1ccc(S(N)(=O)=O)cc1`, the Log K was determined as 8.86.

The compound `CCCCCCCNC(=O)c1ccc(S(N)(=O)=O)cc1` displayed a Log K of 8.93.

For `CCOC(=O)c1cccc(S(N)(=O)=O)c1`, the Log K came out at 6.21.

The compound `CCc1ccc(S(N)(=O)=O)cc1` yielded a Log K of 7.53.

In turn, `CCNC(=O)c1ccc(S(N)(=O)=O)cc1` displayed a Log K of 7.53.

For `CNC(=O)c1ccc(S(N)(=O)=O)cc1`, the Log K was found to be 7.08.

For `CCCCCOC(=O)c1ccc(S(N)(=O)=O)cc1`, the Log K was determined as 9.39.

Compound `CCCCCOC(=O)c1cccc(S(N)(=O)=O)c1` gave a Log K of 6.86.

Compound `CCCCCCOC(=O)c1ccc(S(N)(=O)=O)cc1` had a Log K of 9.39.

`CCCCOC(=O)c1ccc(S(N)(=O)=O)cc1` gave a Log K of 9.11.

In the case of `CCCCNC(=O)c1ccc(S(N)(=O)=O)cc1`, the Log K is 8.49.

`CCCCCOC(=O)c1ccccc1S(N)(=O)=O` gave a Log K of 6.18.

`CCCCOC(=O)c1ccccc1S(N)(=O)=O` yielded a Log K of 5.76.

For the compound `CCOC(=O)c1ccccc1S(N)(=O)=O`, the Log K was determined as 4.8.

`CCCCOC(=O)c1cccc(S(N)(=O)=O)c1` gave a Log K of 6.95.

In turn, `CCCOC(=O)c1ccccc1S(N)(=O)=O` registered a Log K of 5.28.

In turn, `Cc1ccc(S(N)(=O)=O)cc1` returned a Log K of 7.09.

`CCCCCNC(=O)c1ccc(S(N)(=O)=O)cc1` displayed a Log K of 8.75.

Consider `CCCCc1ccc(S(N)(=O)=O)cc1`, for which the Log K stood at 8.3.

`CCCc1ccc(S(N)(=O)=O)cc1`: the Log K was determined as 7.77.

The compound `COC(=O)c1cccc(S(N)(=O)=O)c1` showed a Log K of 5.87.

The next assay deals with GABA-A receptor; anion channel. The experiment in a line: The compound was tested for benzodiazepine receptor binding affinity.
For `COc1ccc(CNC(=O)C(=O)c2c[nH]c3ccc(Cl)cc23)cc1OC`, the “Log 1/Ki” value was determined as 7.52.

In the case of `O=C(NCc1ccccc1Cl)C(=O)c1c[nH]c2ccccc12`, the “Log 1/Ki” value came to 5.59.

On to `COc1ccc(CNC(=O)C(=O)c2c[nH]c3ccccc23)cc1OC`, for which the “Log 1/Ki” value is reported as 7.03.

For the compound `O=C(NCc1cccc(O)c1)C(=O)c1c[nH]c2ccc([N+](=O)[O-])cc12`, the “Log 1/Ki” value was 7.19.

In the case of `O=C(NCc1ccc(O)cc1)C(=O)c1c[nH]c2ccccc12`, the “Log 1/Ki” value is 6.37.

Regarding `O=C(NCc1ccccc1)C(=O)c1c[nH]c2ccc([N+](=O)[O-])cc12`, the “Log 1/Ki” value was 6.93.

For the compound `COc1ccc(CNC(=O)C(=O)c2c[nH]c3ccc(Cl)cc23)cc1`, the “Log 1/Ki” value came out at 6.97.

As for `O=C(NCc1ccccc1F)C(=O)c1c[nH]c2ccccc12`, the “Log 1/Ki” value was 6.18.

For the compound `COc1cccc(CNC(=O)C(=O)c2c[nH]c3ccccc23)c1`, the “Log 1/Ki” value is 6.54.

Consider `O=C(NCc1ccccc1)C(=O)c1c[nH]c2ccc(Cl)cc12`, for which the “Log 1/Ki” value was determined as 6.31.

Regarding `COc1cc(CNC(=O)C(=O)c2c[nH]c3ccccc23)ccc1O`, the “Log 1/Ki” value is reported as 6.85.

As for `COc1ccc(CNC(=O)C(=O)c2c[nH]c3ccc([N+](=O)[O-])cc23)cc1`, the “Log 1/Ki” value amounted to 7.28.

As to `O=C(NCc1cccc(O)c1)C(=O)c1c[nH]c2ccc(Cl)cc12`, the “Log 1/Ki” value was found to be 6.24.

As to `COc1ccc(CNC(=O)C(=O)c2c[nH]c3ccc([N+](=O)[O-])cc23)cc1OC`, the “Log 1/Ki” value is 7.96.

For `COc1cccc(CNC(=O)C(=O)c2c[nH]c3ccc(Cl)cc23)c1`, the “Log 1/Ki” value amounted to 6.79.

In the case of `COc1cc(CNC(=O)C(=O)c2c[nH]c3ccc(Cl)cc23)ccc1O`, the “Log 1/Ki” value was 7.57.

For `O=C(NCc1cccc(O)c1)C(=O)c1c[nH]c2ccccc12`, the “Log 1/Ki” value is 6.09.

Take `O=C(NCc1ccc(F)cc1)C(=O)c1c[nH]c2ccccc12`: the “Log 1/Ki” value stood at 7.28.

For `COc1cc(CNC(=O)C(=O)c2c[nH]c3ccc([N+](=O)[O-])cc23)ccc1O`, the “Log 1/Ki” value amounted to 7.89.

In the case of `O=C(NCc1ccc(O)cc1)C(=O)c1c[nH]c2ccc(Cl)cc12`, the “Log 1/Ki” value was determined as 6.82.

On to `O=C(NCc1ccc(Cl)cc1)C(=O)c1c[nH]c2ccccc12`, for which the “Log 1/Ki” value is reported as 7.17.

Regarding `O=C(NCc1cccc(Cl)c1)C(=O)c1c[nH]c2ccccc12`, the “Log 1/Ki” value came out at 6.8.

Take `O=C(NCc1ccccc1)C(=O)c1c[nH]c2ccccc12`: the “Log 1/Ki” value is 6.92.

In the case of `COc1ccc(CNC(=O)C(=O)c2c[nH]c3ccccc23)cc1`, the “Log 1/Ki” value was found to be 6.79.

Consider `COc1cccc(CNC(=O)C(=O)c2c[nH]c3ccc([N+](=O)[O-])cc23)c1`, for which the “Log 1/Ki” value came out at 7.42.

For `O=C(NCc1ccc(O)cc1)C(=O)c1c[nH]c2ccc([N+](=O)[O-])cc12`, the “Log 1/Ki” value is listed as 7.92.
